Data: patent US8076315B2, “Pharmacological treatments for sleep disorders (apnoe) with prostanoid receptor antagonists” (The Board of Trustees of the University of Illinois, priority 2005, dated 2011)

Tests used:
[1] = tested on: spontaneous sleep apnea in the rat; assay: spontaneous sleep apnea model in the rat (plethysmography with EEG/EMG recording); assay type: in vivo; conditions: for efficacy against sleep apnea (rate of apneas per hour of NREM and REM sleep, 6 hours of polygraphic recording): systemic injection 15 min before recording, Example 2, described as results that can be obtained
Experimental: Adult, male Sprague-Dawley rats (obtained from Sasco-King, Wilmington, Mass.; usually 8 per test group; average weight=300 g) are maintained on a 12-hour light (08:00-20:00 hour)/12-hour dark (20:00-08:00 hour) cycle for one week, housed in individual cages and given ad libitum access to food and water. Following the one week of acclimatization, animals are subjected to the following surgical procedures.
Acclimatized animals are anesthetized using a mixture of ketamine […] and xylazine (5 mg/kg) at a volume of 1 ml/kg body weight for the implantation of cortical electrodes for electroencephalogram (EEG) recording and neck muscle electrodes for electromyogram (EMG) recording. The surface of the skull is exposed surgically and cleaned with a 20% solution of hydrogen peroxide followed by a solution of 95% isopropyl alcohol. Next, a dental preparation of sodium fluoride (Flura-GEL®, Saslow Dental, Mt. Prospect, Ill.) is applied to harden the skull above the parietal cortex and allowed to remain in place for 5 minutes. The fluoride mixture is then removed from the skull above the parietal cortex. The EEG electrodes consisting of four stainless steel machine screws, having leads attached thereto, are threaded into the skull to rest on the dura over the parietal cortex. A thin layer of Justi® resin cement (Saslow Dental, Mt. Prospect, Ill.) is applied to cover the screw heads (of screws implanted in the skull) and surrounding skull to further promote the adhesion of the implant. EMG electrodes consisting of two ball-shaped wires are inserted into the bilateral neck musculature. All leads (i.e., EEG and EMG leads) are soldered to a miniature connector (39F1401, Newark Electronics, Schaumburg, Ill.). Lastly, the entire assembly is fixed to the skull with dental cement.
After surgery, all animals are allowed to recover for one week before being recorded for sleep and breathing.
Physiological parameters (see below) from each animal prepared as set forth in Example 1 are recorded on 2 occasions in random order, with recordings for an individual animal separated by at least 3 days. Fifteen minutes prior to each recording an animal receives a systemic injection (1 ml/kg intraperitoneal bolus) of either saline (control) or an active dose of a drug treatment.
Respiration is recorded by placing each animal, unrestrained, inside a single chamber plethysmograph (PLYUN1R/U; Buxco Electronics, Sharon, Conn.; dimension 6 in. ×10 in.×6 in.) ventilated with a bias flow of fresh room air at a rate of 2 L/min. A cable plugged onto the animal's connector and passed through a sealed port is used to collect the bioelectrical activity from the head implant.
Sleep and waking states are assessed using software developed by Benington et al. (1994, Sleep 17: 28-36) to analyze the biparietal EEG and nuchal EMG signals on 10-second epochs. This software discriminates wakefulness (W) as a high frequency low amplitude EEG with a concomitant high EMG tone, NREM sleep by increased spindle and […] together with decreased EMG tone, and REM sleep by a low ratio of a delta to theta activity and an absence of EMG tone. Sleep efficiency is measured as the percentage of total recorded epochs staged as NREM or REM sleep.
An accepted physiological animal model of spontaneous sleep apnea in the rat (see Radulovacki & Carley, 2002, in SLEEP-RELATED BREATHING DISORDERS: EXPERIMENTAL MODELS AND THERAPEUTIC POTENTIAL, (Carley & Radulovacki, eds.), Marcel Dekker: New York, pp. 3-16) is used to assess the effects of test drugs. More specifically, sleep apneas, defined as cessation of respiratory effort for at least 2.5 seconds, are scored for each recording session and associated with the stage of sleep in which they occur (i.e., NREM or REM sleep). The duration requirement of 2.5 seconds represents at least 2 “missed” breaths, which is therefore analogous to a 10 second apnea duration requirement in humans, which also reflects 2-3 missed breaths. […]

[2] = tested on: central apneas during all sleep stages; conditions: rats with frequent central apneas; cited from earlier work
[3] = tested on: sleep apnea in OSAS patients; conditions: cited from earlier work

Compound | efficacy against sleep apnea (rate of apneas per hour of NREM and REM sleep, 6 hours of polygraphic recording) [1] | apnea frequency [2] | also measured
polyphloretin phosphate | dose-dependent efficacy |  | 
Cc1nccn1CC1CCc2c(c3ccccc3n2C)C1=O (stereo not drawn) [ondansetron] |  | reduce apnea frequency | effect on sleep apnea ([3]; another study of OSAS patients): failed to demonstrate any effect
O=C1CC2(CCCC2)CC(=O)N1CCCCN1CCN(c2ncccn2)CC1 [Buspirone] |  |  | patients with reduced apnea index ([3]; patients with sleep apnea syndrome (Mendelson et al., 1991)): 4 of 5
CN1CCN2c3ncccc3Cc3ccccc3C2C1 (stereo not drawn) [mirtazapine] |  | reduce apnea frequency | reduction of apnea frequency ([3]; one study of OSAS patients): 50%
CCCCCNC(=O)c1coc([C@H]2[C@@H](Cc3ccccc3CCC(=O)O)[C@@H]3CC[C@H]2O3)n1 [Ifetroban] | dose-dependent efficacy |  | 
COc1cc(N)c(Cl)cc1C(=O)N[C@H]1CN2CCC1CC2 [R-zacopride] |  | reduce apnea frequency | 
diphloretin phosphate | dose-dependent efficacy |  | 
CC(=O)NNC(=O)N1Cc2ccccc2Oc2ccc(Cl)cc21 [SC19220] |  |  | animals in which apnea was eliminated throughout the 6-hour recording ([1]; intraperitoneal injection, 0.005 mg/kg, 4 test animals): 2 of 4; average reduction of apnea frequency with respect to placebo (DMSO) control injection ([1]; intraperitoneal injection, 0.005 mg/kg, 4 test animals, 6-hour recording): 64%
O=C(O)CCn1c2c(c3ccccc31)C[C@H](NS(=O)(=O)c1ccc(F)cc1)CC2 [ramatroban] | dose-dependent efficacy |  | 
